The record followed here is PubChem BioAssay (NCI).

The structures appear in SMILES notation.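 Each compound was tested at five concentrations against cells in 96-well plates for 48 hours. Definition used: TGI = concentration required for complete inhibition of growth.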 Where a SMILES comes first, the peptide text is derived from it. [ ]: non-standard residue; d: D form. The star is where a group is joined. NMeV = CN[C@H](C(=O)O)C(C)C; X29 = COc1ccc(CN*)c(OC)c1; Octanoyl = CCCCCCCC(=O)*; dNMeA = CN[C@H](C)C(=O)O

Test systems include U251 CNS; NCI-H226 lung; MCF7 breast; MDA-MB-435; PC-3 prostate; IGROV1 ovarian; K-562 leukemia; EKVX NSCLC; MDA-N; NCI-H522 lung; A549 NSCLC; OVCAR-8 ovarian; SK-MEL-5 melanoma; SF-295 CNS; SW-620 colon; NCI-H460 lung.
What all share (experiment): DTP human tumour cell line panel, 48 h

As for `Cc1n[nH]c(=O)n1N1C(=O)CCCC1=O`, the TGI in the assay on U251 CNS, with NCI-H226 lung, with MCF7 breast, in the assay on MDA-MB-435, in the assay with PC-3 prostate and in the assay on IGROV1 ovarian was over 100 µM each time. Further, the TGI with K-562 leukemia, in the assay with EKVX NSCLC, with MDA-N, in the assay with NCI-H522 lung, with A549 NSCLC and in the assay on OVCAR-8 ovarian was over 100 µM each time. Moreover, the TGI in the assay on SK-MEL-5 melanoma and with SF-295 CNS was over 100 µM in each case.
On to `CCN1CCC(C)OP1(=O)Cc1ccccc1` (centres undefined), for which the TGI with SW-620 colon, in the assay with U251 CNS, with NCI-H226 lung, in the assay with MCF7 breast, in the assay on MDA-MB-435 and with PC-3 prostate was over 100 µM each time. Besides, the TGI in the assay with IGROV1 ovarian, in the assay with K-562 leukemia, in the assay with NCI-H460 lung, with EKVX NSCLC, in the assay on A549 NSCLC and with OVCAR-8 ovarian was over 100 µM in each case. Also, the TGI with SK-MEL-5 melanoma and in the assay with SF-295 CNS was over 100 µM each time.
With `COCc1nc(N)nc(N2N=C(C)CC2(C)C)n1`, the TGI in the assay on SW-620 colon, with U251 CNS, in the assay with NCI-H226 lung, in the assay with MCF7 breast, in the assay with MDA-MB-435 and in the assay on PC-3 prostate was over 100 µM each time. The TGI in the assay on IGROV1 ovarian, in the assay with K-562 leukemia, with NCI-H460 lung, with EKVX NSCLC, in the assay with NCI-H522 lung and in the assay on A549 NSCLC was over 100 µM throughout. Also, the TGI with OVCAR-8 ovarian, with SK-MEL-5 melanoma and in the assay with SF-295 CNS was over 100 µM each time.
As for `CNC(=O)C1(N)c2ccccc2C=Cc2ccccc21`, the TGI in the assay with SW-620 colon, in the assay on U251 CNS, in the assay on NCI-H226 lung, in the assay with MCF7 breast, in the assay on MDA-MB-435 and in the assay on PC-3 prostate was over 100 µM in each case. Besides, the TGI with IGROV1 ovarian, in the assay on K-562 leukemia, in the assay on EKVX NSCLC, with MDA-N, in the assay on NCI-H522 lung and in the assay with A549 NSCLC was over 100 µM throughout. Also, the TGI in the assay with OVCAR-8 ovarian, in the assay with SK-MEL-5 melanoma and in the assay on SF-295 CNS was over 100 µM in each case.
On to `Cc1ccccc1-n1c(=O)c2ncn(C3CCCO3)c2n(-c2ccccc2C)c1=S` (centres undefined), for which the TGI in the assay with SW-620 colon, in the assay with NCI-H226 lung, in the assay with MCF7 breast, with MDA-MB-435, in the assay on IGROV1 ovarian and with K-562 leukemia was over 100 µM each time. In addition, the TGI with EKVX NSCLC, with MDA-N, in the assay on NCI-H522 lung, in the assay on A549 NSCLC, in the assay with OVCAR-8 ovarian and in the assay on SK-MEL-5 melanoma was over 100 µM each time. Besides, the TGI (usually the concentration giving total growth inhibition) in the assay on SF-295 CNS is over 100 µM.
On to `CN1c2ccccc2C(=O)NC12CCN(CCCC(=O)c1ccc(F)cc1)CC2`, for which the TGI in the assay with SW-620 colon, in the assay with U251 CNS, with NCI-H226 lung, in the assay on MCF7 breast, with MDA-MB-435 and in the assay on PC-3 prostate was over 100 µM each time. Also, the TGI with IGROV1 ovarian is over 100 µM; in the assay on K-562 leukemia, 77.8 µM; in the assay on EKVX NSCLC it was over 100 µM; with MDA-N, over 100 µM; with NCI-H522 lung, over 100 µM; in the assay on A549 NSCLC, over 100 µM. Also, the TGI in the assay with OVCAR-8 ovarian was over 100 µM; in the assay on SK-MEL-5 melanoma it was 79.6 µM; with SF-295 CNS, over 100 µM.
`O=C(NC1CCCCC1NC(c1ccccc1)(c1ccccc1)c1ccccc1)C(=O)NC1CCCCC1NC(c1ccccc1)(c1ccccc1)c1ccccc1` (centres undefined): the TGI in the assay on SW-620 colon was over 100 µM; with U251 CNS, 57.4 µM; in the assay with NCI-H226 lung, over 100 µM; with MCF7 breast, over 100 µM; in the assay on MDA-MB-435, over 100 µM; with PC-3 prostate, over 100 µM. Moreover, the TGI in the assay with IGROV1 ovarian, in the assay with K-562 leukemia, in the assay with NCI-H460 lung, in the assay with EKVX NSCLC, in the assay with NCI-H522 lung and in the assay on A549 NSCLC was over 100 µM each time. In addition, the TGI in the assay with OVCAR-8 ovarian, in the assay with SK-MEL-5 melanoma and in the assay with SF-295 CNS was over 100 µM throughout.
Take `C/C(=N\Nc1ccc([N+](=O)[O-])cc1[N+](=O)[O-])c1sc(-n2nc(-c3ccccc3)cc2-c2ccccc2)nc1C`: the TGI in the assay on SW-620 colon, in the assay on U251 CNS, in the assay on NCI-H226 lung, with MCF7 breast, in the assay with MDA-MB-435 and in the assay on IGROV1 ovarian was over 100 µM each time. Moreover, the TGI in the assay with NCI-H460 lung, with EKVX NSCLC, with MDA-N, in the assay with NCI-H522 lung, in the assay on OVCAR-8 ovarian and in the assay on SK-MEL-5 melanoma was over 100 µM throughout. The TGI in the assay with SF-295 CNS is over 100 µM.
Turning to `CCCCCCCC(=O)N[C@H](C(=O)N[C@H](C(=O)N(C)[C@H](C(=O)N1CCC[C@H]1C(=O)N(C)[C@H](C)C(=O)NCc1ccc(OC)cc1OC)C(C)C)C(C)C)C(C)C` (Octanoyl-VV[NMeV]P[dNMeA]-X29), the TGI with SW-620 colon is over 100 µM; in the assay with U251 CNS, over 85.5 µM; in the assay on NCI-H226 lung, 27.5 µM; in the assay with MCF7 breast it was 42.8 µM; in the assay with MDA-MB-435 it was 28.9 µM; with PC-3 prostate, 58.7 µM. Further, the TGI in the assay on IGROV1 ovarian is 32.8 µM; with K-562 leukemia, over 100 µM; with NCI-H460 lung, over 100 µM; with EKVX NSCLC it was 97.3 µM; in the assay with NCI-H522 lung, 31.4 µM; in the assay with A549 NSCLC, 99 µM. In addition, the TGI with OVCAR-8 ovarian was over 100 µM; in the assay on SK-MEL-5 melanoma it was 13 µM; in the assay on SF-295 CNS, over 88.7 µM.
